# Test results: US7449558B2, “Site-specific labelling of proteins” (National University of Singapore, priority 2003, dated 2008)
# Legend:
# N-terminal cysteine EGFP = N-terminal cysteine EGFP (Aequorea victoria, UniProt P42212, F64L/H231L/S65T); details: labelled bacterial cells expressing EGFP, excitation 470±20 nm, emission 605±30 nm
# Experimental: The FRET channel for CFP/TMR pair was recorded using filters with an excitation: 436±20 nm and emission: 620±20 nm (Chroma). The FRET channel for GFP/TMR pair was using filters with excitation=470±20 nm and emission=605±30 nm (Zeiss).
# [1] = system: control proteins without N-terminal cysteine (GST, Protease, Lipase, Papain, Pepsin); test: In vitro labelling of control proteins without an N-terminal cysteine (site-specificity); assay type: biochemical; details: 5 control proteins with no or only internal cysteines, 60 min incubation
# Experimental: Probes were prepared as 200 μM stocks (25× in DMSO) and stored at −20° C. In a typical labelling reaction, 6 μl of each probe (final concentration: 8 μM) was added to 50 μl of pure protein (1 mg/ml) dissolved in 1×PBS (final concentration of protein: ˜[…]), with or without 1 mM DTT, and the reaction was topped up with 1×PBS to a final volume of 150 μl. DTT was added to experiments, where live cells were used, to reduce background labelling. At specific time intervals, 15 μl of the reaction was withdrawn and quenched by addition of 1.7 μl of 100 mM cysteine to the reaction mixture (final concentration of cysteine: 10 mM), followed by denaturation with SDS-PAGE loading dye at 95° C. for 3 min. The loading dye also serves to hydrolyze the diacetate groups on probes 2 and 4, thereby releasing the fluorescence.
# Probe 3 was used in the labelling reaction, and the reaction was performed as mentioned above with 60 min incubation time. All proteins are available from Sigma (St Louis, USA). (Lane 1. GST (cat #: G-4385); Lane 2. Protease (P-5380); Lane 3. Lipase (L-9031); Lane 4. Papain (P-4762); Lane 5. Pepsin (P-6887); Lane 6. BioRad Precision Plus Protein Standards).
# [2] = system: N-terminal cysteine ECFP-NLS; test: Fluorescence microscopy / FRET of HEK293 cells expressing N-terminal cysteine ECFP-NLS; assay type: cell-based; details: HEK293 cells transfected with ECFP-NLS
# From the text: Intein-fused EGFP and ECFP (enhanced cyan fluorescent protein) were constructed, in which an extra N-terminal cysteine was introduced into both EGFP and ECFP, as described above. To facilitate evaluation of the labelling, as well as to assess whether the strategy targets proteins expressed in subcellular compartments of mammalian cells (e.g. nucleus), a nuclear localization sequence (NLS) was fused to ECFP, generating ECFP-NLS. The intein-fused EGFP gene was amplified from the above bacterial construct, while the ECFP gene with a nuclear localization sequence (ECFP-NLS) was amplified from pECFP-Nuc (Clontech, USA) and cloned first into the pTWIN1 vector. Using the GATEWAY™ cloning system (Invitrogen, USA), the intein-fused genes were cloned into the donor vector pDONR201, followed by recombination of the cloned genes into a mammalian expression vector pT-Rex-DEST30 (Invitrogen). All constructs were sequence verified. […]
# Fluorescence microscopy experiments were also performed using HEK293 mammalian cells. […] The fluorescence images were obtained using the excitation and emission channels described above for the bacterial experiments.
# N-terminal cysteine GST = biological target: T1, N-terminal cysteine GST (Schistosoma japonicum, UniProt P08515); test: In vivo time-course labelling of N-terminal cysteine GST in live bacterial cells; assay type: cell-based, E. coli; details: cells expressing labelled GST, FIG. 15
# T1 construct: Ssp DnaB intein tag (pTWIN2) (N, cleaved yes); expressed in transfected cells; host or cells: E. coli ER2566 transformed with pTWIN2-GST
# Experimental: To generate in vivo proteins having N-terminal cysteine residues, bacterial cells expressing N-terminal cysteine-containing proteins EGFP and GST fused to the C-terminus of the Ssp DnaB mini-intein were induced to undergo self-cleavage, releasing the N-terminal cysteine protein, then incubated with the probes over a period of 24 h.
# Briefly, the above bacterial constructs were transformed into the E. coli expression strain ER2566 (NEB) and grown in 100 mg/L ampicillin containing LB media at 37° C. […]
# For the time-course labelling experiments, a small sample of cells was removed at each time interval, quenched with 0.01M cysteine, and lysed by boiling with SDS loading buffer. The resulting sample was analyzed directly on a 12% SDS-PAGE. Fluorescence labelling was visualized with a Typhoon™ fluorescence scanner (Amersham Biosciences). Biotinylated proteins were detected by western blotting (with anti-biotin-HRP) with the Enhanced ChemiLuminescent™ kit (Amersham).
# Results are shown in FIG. 13, where i=cells labelled with probe 2 (FL), ii=cells labelled with probe 3 (TMR) and iii=cells labelled with probe 5 (biotin) (lanes 1-8 are samples taken at 0 min, 10 min, 30 min, 1 h, 3 h, 6 h, 12 h and 24 h, respectively). The results of the 24 hour time-course are quantified in FIG. 14 (FL=♦, TMR=▪ and BIOTIN=▴).
# HEK293 cells = test: Cell toxicity in HEK293 cells during labelling; assay type: cell-based; details: 100 μM, 24 h
# Experimental: Briefly, HEK293 cells grown in DMEM+10% FBS media at 37° C. with 5% CO2 were transiently transfected with pT-Rex-DEST30-intein-EGFP-NLS or pT-Rex-DEST30-intein-ECFP-NLS using Polyfect™ (Qiagen, USA). See FIGS. 12ii. and iii., respectively, for in vivo intein cleavage for the expressed EGFP and ECFP proteins expressed in HEK293 cells. After 36 hours of protein expression, cells were washed in 1×PBS and cystine-free DMEM (Sigma) was added. The biotin-thioester probe, probe 5, was added to a final concentration of 100 μM (10-100 μM also worked) and cells were incubated for another 24 h. […] Cells were harvested by centrifugation at 1000 rpm for 10 min and resuspended in 1×PBS. Washings were repeated at least 3 times, and cells were lysed in PBS using glass beads. Magnetic streptavidin beads (Promega, USA) were used to pull-down all biotinylated proteins in the cell lysate. Beads were washed twice in 1× PBS, then boiled in 1×SDS loading buffer and loaded onto a 12% SDS-PAGE. Western blotting was used to assess biotinylated proteins, as described above.
# T1 sequence (P08515 whole entry, added parts left off): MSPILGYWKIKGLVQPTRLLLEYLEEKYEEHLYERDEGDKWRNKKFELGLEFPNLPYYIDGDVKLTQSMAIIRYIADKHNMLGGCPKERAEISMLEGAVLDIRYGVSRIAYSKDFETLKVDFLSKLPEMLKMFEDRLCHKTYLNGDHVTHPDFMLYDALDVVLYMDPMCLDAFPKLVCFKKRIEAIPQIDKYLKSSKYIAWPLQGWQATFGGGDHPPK
smiles,measurement,setting,value
"CN(C)c1ccc2c(c1)Oc1cc(N(C)C)ccc1C21OC(=O)c2cc(C(=O)NCC(=O)SCc3ccccc3)ccc21 [Probe 3, amino thioacetic acid S-benzyl ester of 5-carboxy-tetramethylrhodamine]",FRET signal,N-terminal cysteine EGFP,a clear FRET signal was observed
same,site-specificity of labelling,[1],labelling occurred ONLY with proteins possessing an N-terminal cysteine
same,localization of labelling,"[2]; 100 μM probe, 24 h",the majority of the labelling occurred inside the nucleus
same,FRET signal,"[2]; excitation 436±10 nm, emission 620±30 nm",clear FRET signal in the nucleus of the labelled cells
"O=C(CNC(=O)c1ccc(C2=C3C=CC(O)C=C3Oc3cc(O)ccc32)c(C(=O)O)c1)SCc1ccccc1 (stereo not drawn) [Probe 2, N-benzylsulfanylcarbonylmethyl-6-(3,6-dihydroxy-3H-xanthen-9-yl)-isophthalamic acid]",specificity of labelling inside the live cell (SDS-PAGE),N-terminal cysteine GST,"only the desired protein was labelled specifically, as well as covalently, inside the live cell, with little or no background observed"
"O=C(CCCCC1SCC2NC(=O)NC21)NCC(=O)SCc1ccccc1 (stereo not drawn) [Probe 5, [5-(2-oxo-hexahydro-thieno[3,4-d]imidazol-6-yl)-pentanoylamino]-thioacetic acid S-benzyl ester]",cell toxicity,HEK293 cells,No cell toxicity was observed
